Experimental data from ChEMBL document CHEMBL6078632, “Discovery of Janus Kinase and Histone Deacetylase Dual Inhibitors as a New Strategy to Treat Psoriasis” (J Med Chem, 2024).
The source made the active and inactive calls. The rule behind the calls is not given here.

Experiments:
HaCaT = test: cells; settings: Homo sapiens, 48 h
Description: Antiproliferative activity against human HaCAT cells assessed as inhibition of TNFalpha-induced proliferation measured after 48 hrs by CCK-8 assay

[1] = target: T1, Tyrosine-protein kinase JAK2 (Homo sapiens, UniProt O60674); test: Inhibition of JAK2 (unknown origin) using FAM-labelled peptide and ATP at 100 nM measured after 25 mins incubation relative to control
RAW264.7 [2] = test: cells; assay type: functional; settings: Mus musculus, time 24 hrs
Description: Antiinflammatory activity in mouse RAW264.7 cells assessed as inhibition of LPS-induced NO release at 0.4 uM incubated for 24 hrs relative to control

Histone deacetylase 1 = Histone deacetylase 1 (Homo sapiens, UniProt Q13547); test: Inhibition of recombinant human HDAC1 using (Ac-Leu-Gly-Lys(Ac)-AMC as substrate measured after 30 mins by fluorescence assay
[3] = target: T1, Tyrosine-protein kinase JAK2; test: Inhibition of JAK2 (unknown origin) using FAM-labelled peptide and ATP measured after 25 mins incubation relative to control
[4] = target: Platelet-derived growth factor receptor alpha (Homo sapiens) (UniProt P16234); test: Inhibition of PDGFRalpha (unknown origin) at 10 nM relative to control
RAW264.7 [5] = test: Antiinflammatory activity in mouse RAW264.7 cells assessed as inhibition of LPS-induced TNFalpha release at 0.9 uM incubated for 24 hrs by ELISA; assay type: functional, cell-based
[6] = target: Non-receptor tyrosine-protein kinase TYK2 (Homo sapiens, UniProt P29597); test: Inhibition of TYK2 (unknown origin) using FAM-labelled peptide and ATP measured after 25 mins incubation relative to control
Mus musculus [7] = test: Antipsoriatic activity against imiquimod-induced psoriasis BALB/c mouse model assessed as improvement in psoriatic symptom at 0.25 to 0.5 % applied topically back of the mouse for 7 consecutive days; assay type: functional, organism-based; settings: dose 0.25-0.5 %, route top
RAW264.7 [8] = test: Antiinflammatory activity in mouse RAW264.7 cells assessed as inhibition of LPS-induced IFN-gamma release at 0.9 uM incubated for 24 hrs by ELISA; assay type: functional, cell-based
RAW264.7 [9] = test: Antiinflammatory activity in mouse RAW264.7 cells assessed as inhibition of LPS-induced IL-12 release at 0.9 uM incubated for 24 hrs by ELISA; assay type: functional, cell-based
[10] = Acute toxicity in BALB/c mouse assessed as animal death at 7508 mg/kg; assay type: organism-based; settings: in vivo
Mus musculus [11] = test: Antipsoriatic activity against imiquimod-induced psoriasis BALB/c mouse model assessed as improvement in psoriatic symptom at 0.25 % applied topically back of the mouse for 7 consecutive days; assay type: functional, organism-based; settings: route top
RAW264.7 [12] = test: Antiinflammatory activity in mouse RAW264.7 cells assessed as inhibition of LPS-induced NO release at 0.10 uM incubated for 24 hrs relative to control; assay type: functional
[13] = Metabolic stability of the compound in female ICR mouse liver microsomes assessed as clearance at 1 uM measured up to 45 mins by LC-MS/MS analysis; assay type: ADME; settings: read-out: CLH
[14] = Metabolic stability of the compound in female ICR mouse liver microsomes assessed as half life at 1 uM measured up to 45 mins by LC-MS/MS analysis; assay type: ADME
[15] = Acute toxicity in BALB/c mouse assessed as animal death; settings: in vivo
Mus musculus [16] = test: Antipsoriatic activity against imiquimod-induced psoriasis BALB/c mouse model assessed as reduction in skin thickness at 0.25 % applied topically back of the mouse for 7 consecutive days by hematoxylin and eosin staining based histological analysis; assay type: functional, organism-based; settings: route top
Mus musculus [17] = test: Antipsoriatic activity against imiquimod-induced psoriasis BALB/c mouse model assessed as reduction in epidermal thickness applied topically back of the mouse for 7 consecutive days by hematoxylin and eosin staining based histological analysis; assay type: functional, organism-based; settings: dose 0.25-0.5 %, route top
[18] = Antiproliferative activity against HUVEC cells; settings: human
[19] = target: T2, Tyrosine-protein kinase JAK3 (Homo sapiens, UniProt P52333); test: Inhibition of JAK3 (unknown origin) using FAM-labelled peptide and ATP measured after 25 mins incubation relative to control
T2 sequence (P52333 whole entry): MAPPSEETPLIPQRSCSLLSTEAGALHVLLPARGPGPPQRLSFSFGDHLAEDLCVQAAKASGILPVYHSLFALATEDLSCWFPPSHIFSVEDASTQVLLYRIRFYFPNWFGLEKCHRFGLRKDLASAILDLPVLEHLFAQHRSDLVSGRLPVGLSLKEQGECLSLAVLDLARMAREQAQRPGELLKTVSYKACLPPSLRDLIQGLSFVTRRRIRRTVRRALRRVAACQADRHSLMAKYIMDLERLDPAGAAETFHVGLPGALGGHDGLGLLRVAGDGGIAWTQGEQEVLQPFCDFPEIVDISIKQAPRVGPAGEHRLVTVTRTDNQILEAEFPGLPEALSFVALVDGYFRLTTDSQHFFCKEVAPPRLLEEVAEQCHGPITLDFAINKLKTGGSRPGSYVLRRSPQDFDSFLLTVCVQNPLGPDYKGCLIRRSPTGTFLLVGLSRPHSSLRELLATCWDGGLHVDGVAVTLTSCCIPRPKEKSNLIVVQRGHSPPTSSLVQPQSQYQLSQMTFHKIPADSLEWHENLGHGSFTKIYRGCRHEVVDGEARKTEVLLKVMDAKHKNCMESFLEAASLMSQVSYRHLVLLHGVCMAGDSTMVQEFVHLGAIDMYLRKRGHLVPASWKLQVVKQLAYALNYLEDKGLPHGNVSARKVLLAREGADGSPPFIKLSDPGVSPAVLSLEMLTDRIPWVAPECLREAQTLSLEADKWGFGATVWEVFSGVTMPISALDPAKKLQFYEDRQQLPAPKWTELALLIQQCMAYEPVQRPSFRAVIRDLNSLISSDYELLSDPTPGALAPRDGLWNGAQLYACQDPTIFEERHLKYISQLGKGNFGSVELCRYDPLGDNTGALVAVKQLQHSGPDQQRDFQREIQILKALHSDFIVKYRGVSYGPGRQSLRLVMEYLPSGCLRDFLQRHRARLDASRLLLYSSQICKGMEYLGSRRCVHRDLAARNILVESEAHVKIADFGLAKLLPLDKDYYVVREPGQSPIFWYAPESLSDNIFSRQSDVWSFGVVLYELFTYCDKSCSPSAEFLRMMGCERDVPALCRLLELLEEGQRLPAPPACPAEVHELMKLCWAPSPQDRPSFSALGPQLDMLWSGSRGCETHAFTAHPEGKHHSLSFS

RAW264.7 [20] = test: Antiinflammatory activity in mouse RAW264.7 cells assessed as inhibition of LPS-induced NO release at 0.20 uM incubated for 24 hrs relative to control; assay type: functional
Histone deacetylase 8 = target: T3, Histone deacetylase 8 (Homo sapiens, UniProt Q9BY41); test: Inhibition of recombinant human HDAC8 using (Ac-Leu-Gly-Lys(Tfa)-AMC as substrate measured after 30 mins by fluorescence assay
T3 sequence (Q9BY41 whole entry): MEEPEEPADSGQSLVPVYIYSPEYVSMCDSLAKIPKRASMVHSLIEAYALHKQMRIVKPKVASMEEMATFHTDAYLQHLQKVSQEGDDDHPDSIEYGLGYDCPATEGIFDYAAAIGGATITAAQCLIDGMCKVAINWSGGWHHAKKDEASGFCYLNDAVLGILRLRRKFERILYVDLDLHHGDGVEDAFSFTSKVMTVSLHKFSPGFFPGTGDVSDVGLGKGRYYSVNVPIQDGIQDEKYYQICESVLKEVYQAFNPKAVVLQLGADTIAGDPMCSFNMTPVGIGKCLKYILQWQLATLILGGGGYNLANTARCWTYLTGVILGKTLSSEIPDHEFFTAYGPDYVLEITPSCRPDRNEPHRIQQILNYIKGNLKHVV

Mus musculus [21] = test: Antipsoriatic activity against imiquimod-induced psoriasis BALB/c mouse model assessed as reduction in skin thickness at 0.5 % applied topically back of the mouse for 7 consecutive days by hematoxylin and eosin staining based histological analysis; assay type: functional, organism-based; settings: route top
Mus musculus [22] = test: Antipsoriatic activity against imiquimod-induced psoriasis BALB/c mouse model assessed as improvement in psoriatic symptom at 0.5 % applied topically back of the mouse for 7 consecutive days; assay type: functional, organism-based; settings: route top
[23] = Antiproliferative activity against human LO2 cells; assay type: toxicity, cell-based, L02

T1 sequence (O60674 whole entry): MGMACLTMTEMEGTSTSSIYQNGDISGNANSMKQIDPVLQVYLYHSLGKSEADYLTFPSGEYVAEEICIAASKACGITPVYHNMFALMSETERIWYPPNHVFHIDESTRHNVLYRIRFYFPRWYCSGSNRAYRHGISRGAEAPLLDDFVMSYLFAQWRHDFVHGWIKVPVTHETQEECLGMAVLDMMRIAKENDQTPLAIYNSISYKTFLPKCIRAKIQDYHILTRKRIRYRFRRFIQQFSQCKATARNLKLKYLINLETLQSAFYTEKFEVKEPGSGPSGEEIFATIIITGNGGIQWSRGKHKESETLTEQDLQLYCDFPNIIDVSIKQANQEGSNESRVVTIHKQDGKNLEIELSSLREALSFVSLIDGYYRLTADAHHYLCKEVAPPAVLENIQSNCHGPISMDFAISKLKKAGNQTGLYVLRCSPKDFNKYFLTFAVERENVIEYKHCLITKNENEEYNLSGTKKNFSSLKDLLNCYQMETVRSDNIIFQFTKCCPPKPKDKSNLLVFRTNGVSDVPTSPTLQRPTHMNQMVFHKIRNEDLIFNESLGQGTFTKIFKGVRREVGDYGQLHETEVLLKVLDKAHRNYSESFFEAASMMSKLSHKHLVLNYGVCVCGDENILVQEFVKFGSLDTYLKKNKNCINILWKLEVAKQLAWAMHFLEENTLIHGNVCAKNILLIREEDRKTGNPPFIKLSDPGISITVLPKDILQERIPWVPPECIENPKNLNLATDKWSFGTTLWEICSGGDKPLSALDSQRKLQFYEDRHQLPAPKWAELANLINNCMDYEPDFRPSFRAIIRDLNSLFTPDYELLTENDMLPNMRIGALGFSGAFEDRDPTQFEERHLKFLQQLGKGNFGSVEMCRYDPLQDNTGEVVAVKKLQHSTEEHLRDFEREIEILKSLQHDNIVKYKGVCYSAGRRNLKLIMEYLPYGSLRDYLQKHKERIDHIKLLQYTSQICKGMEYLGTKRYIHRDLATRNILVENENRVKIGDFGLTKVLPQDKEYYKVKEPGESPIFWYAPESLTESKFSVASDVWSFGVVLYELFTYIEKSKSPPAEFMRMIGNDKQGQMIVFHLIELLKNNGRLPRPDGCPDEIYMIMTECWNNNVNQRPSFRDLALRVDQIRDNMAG
Histone deacetylase 1, sequence (Q13547 whole entry): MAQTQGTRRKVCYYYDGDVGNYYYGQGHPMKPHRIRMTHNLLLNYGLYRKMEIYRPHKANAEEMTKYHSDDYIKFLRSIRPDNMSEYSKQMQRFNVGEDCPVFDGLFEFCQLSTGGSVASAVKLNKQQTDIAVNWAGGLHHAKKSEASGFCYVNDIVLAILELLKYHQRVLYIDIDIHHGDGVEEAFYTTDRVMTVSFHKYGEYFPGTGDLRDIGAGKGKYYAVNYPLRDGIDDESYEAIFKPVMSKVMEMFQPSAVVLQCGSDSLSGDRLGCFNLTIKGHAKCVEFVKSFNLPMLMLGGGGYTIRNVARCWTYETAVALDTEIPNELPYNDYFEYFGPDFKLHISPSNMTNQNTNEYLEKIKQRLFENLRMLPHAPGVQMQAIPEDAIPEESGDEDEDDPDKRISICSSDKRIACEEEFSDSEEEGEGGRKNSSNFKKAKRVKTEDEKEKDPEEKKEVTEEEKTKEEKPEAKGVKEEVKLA
Non-receptor tyrosine-protein kinase TYK2, sequence (P29597 whole entry): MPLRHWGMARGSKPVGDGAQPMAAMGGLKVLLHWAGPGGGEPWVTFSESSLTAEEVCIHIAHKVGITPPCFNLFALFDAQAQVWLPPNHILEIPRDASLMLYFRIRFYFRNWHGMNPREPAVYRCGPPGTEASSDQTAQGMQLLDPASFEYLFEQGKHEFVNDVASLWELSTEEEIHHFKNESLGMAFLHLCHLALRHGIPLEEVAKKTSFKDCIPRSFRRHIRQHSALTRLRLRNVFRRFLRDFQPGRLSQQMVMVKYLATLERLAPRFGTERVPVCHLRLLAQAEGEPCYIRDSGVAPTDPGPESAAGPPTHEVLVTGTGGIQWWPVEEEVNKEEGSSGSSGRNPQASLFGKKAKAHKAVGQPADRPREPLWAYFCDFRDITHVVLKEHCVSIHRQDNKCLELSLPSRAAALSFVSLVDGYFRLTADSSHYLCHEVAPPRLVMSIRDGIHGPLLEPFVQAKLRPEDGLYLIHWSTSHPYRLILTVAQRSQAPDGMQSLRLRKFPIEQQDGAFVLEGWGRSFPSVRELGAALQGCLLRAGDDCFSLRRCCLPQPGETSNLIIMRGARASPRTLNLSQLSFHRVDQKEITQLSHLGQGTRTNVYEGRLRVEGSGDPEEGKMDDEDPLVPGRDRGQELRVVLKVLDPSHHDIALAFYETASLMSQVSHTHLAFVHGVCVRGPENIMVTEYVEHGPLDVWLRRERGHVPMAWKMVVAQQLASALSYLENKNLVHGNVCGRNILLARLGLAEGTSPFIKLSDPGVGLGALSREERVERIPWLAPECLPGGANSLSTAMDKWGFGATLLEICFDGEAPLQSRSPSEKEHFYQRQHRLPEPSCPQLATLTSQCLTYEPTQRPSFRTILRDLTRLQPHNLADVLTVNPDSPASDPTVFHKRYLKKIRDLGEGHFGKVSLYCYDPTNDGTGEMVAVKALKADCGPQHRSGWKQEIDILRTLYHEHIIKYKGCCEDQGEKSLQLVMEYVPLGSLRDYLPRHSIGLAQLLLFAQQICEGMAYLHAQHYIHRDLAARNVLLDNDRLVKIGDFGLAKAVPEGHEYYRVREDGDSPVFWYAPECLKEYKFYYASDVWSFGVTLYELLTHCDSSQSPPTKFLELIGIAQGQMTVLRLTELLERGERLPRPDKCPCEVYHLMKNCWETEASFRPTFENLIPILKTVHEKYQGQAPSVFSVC
Platelet-derived growth factor receptor alpha (Homo sapiens), sequence (P16234 whole entry): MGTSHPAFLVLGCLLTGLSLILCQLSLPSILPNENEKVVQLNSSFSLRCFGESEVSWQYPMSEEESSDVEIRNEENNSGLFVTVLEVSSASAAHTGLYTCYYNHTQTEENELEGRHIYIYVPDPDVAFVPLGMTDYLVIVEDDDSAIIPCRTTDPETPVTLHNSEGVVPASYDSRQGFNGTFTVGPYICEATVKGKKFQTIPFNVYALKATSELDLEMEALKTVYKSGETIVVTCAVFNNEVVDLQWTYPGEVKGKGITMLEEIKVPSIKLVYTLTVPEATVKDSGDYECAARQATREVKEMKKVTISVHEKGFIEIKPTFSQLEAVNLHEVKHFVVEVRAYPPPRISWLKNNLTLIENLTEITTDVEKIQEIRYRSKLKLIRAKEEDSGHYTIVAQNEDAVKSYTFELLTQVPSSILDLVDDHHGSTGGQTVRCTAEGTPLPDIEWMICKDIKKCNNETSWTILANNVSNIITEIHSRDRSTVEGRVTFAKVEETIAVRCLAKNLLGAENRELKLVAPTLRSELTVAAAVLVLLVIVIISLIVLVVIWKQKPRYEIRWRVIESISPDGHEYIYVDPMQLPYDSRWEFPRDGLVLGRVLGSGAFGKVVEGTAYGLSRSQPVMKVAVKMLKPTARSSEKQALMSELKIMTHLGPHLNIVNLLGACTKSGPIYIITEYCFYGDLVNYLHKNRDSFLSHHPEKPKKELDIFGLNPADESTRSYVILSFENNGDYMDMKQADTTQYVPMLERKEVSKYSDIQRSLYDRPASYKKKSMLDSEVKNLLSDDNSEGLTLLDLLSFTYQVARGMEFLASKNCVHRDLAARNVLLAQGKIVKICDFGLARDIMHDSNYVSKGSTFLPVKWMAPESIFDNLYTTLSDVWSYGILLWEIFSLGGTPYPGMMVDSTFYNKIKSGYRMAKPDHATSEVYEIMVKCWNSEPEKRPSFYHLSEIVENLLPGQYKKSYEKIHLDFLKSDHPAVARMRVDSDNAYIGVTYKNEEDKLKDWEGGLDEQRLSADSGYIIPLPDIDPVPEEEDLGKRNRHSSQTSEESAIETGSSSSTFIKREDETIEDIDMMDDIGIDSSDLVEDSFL

inhibition [1] [%]	Compound	IC50 (HaCaT) [µM]	inhibition at 0.4 µM (RAW264.7 [2]) [%]	also measured
100	CS(=O)(=O)Nc1ccc(-c2ccnc(Nc3ccc(N4CCN(CC(=O)NCCCCCCCC(=O)NO)CC4)cc3)n2)cc1	10	71.3	
99	CS(=O)(=O)Nc1ccc(-c2ccnc(Nc3ccc(N4CCN(CC(=O)Nc5ccc(C(=O)NO)s5)CC4)cc3)n2)cc1	1.4	82.1	
100	CS(=O)(=O)Nc1ccc(-c2ccnc(Nc3ccc(N4CCN(CC(=O)NCCCC(=O)NO)CC4)cc3)n2)cc1	17		
99	CS(=O)(=O)Nc1ccc(-c2ccnc(Nc3ccc(N4CCN(CC(=O)NO)CC4)cc3)n2)cc1	10		IC50 (Histone deacetylase 1): > 2000 nM
97	CS(=O)(=O)Nc1ccc(-c2ccnc(Nc3ccc(-c4cn(CC(=O)NCCC(=O)NO)nn4)cc3)n2)cc1	> 50		
99	CS(=O)(=O)Nc1ccc(-c2ccnc(Nc3ccc(-c4cn(CC(=O)NCCCC(=O)NO)nn4)cc3)n2)cc1	> 50		
98	CS(=O)(=O)Nc1ccc(-c2ccnc(Nc3ccc(N4CCN(CC(=O)NCCCCC(=O)NO)CC4)cc3)n2)cc1	16		
99	CS(=O)(=O)Nc1ccc(-c2ccnc(Nc3ccc(N4CCN(CC(=O)NCCCCCCC(=O)NO)CC4)cc3)n2)cc1	5.3	73.9	
99	CS(=O)(=O)Nc1ccc(-c2ccnc(Nc3ccc(N4CCN(CC(=O)NCCC(=O)NO)CC4)cc3)n2)cc1	> 50		IC50 (Histone deacetylase 1): > 2000 nM
99	CS(=O)(=O)Nc1ccc(-c2ccnc(Nc3ccc(N4CCN(CC(=O)Nc5ccc(/C=C/C(=O)NO)cc5)CC4)cc3)n2)cc1		110	IC50 [3]: 0.72 nM; IC50 (Histone deacetylase 8): > 1000 nM; Activity (RAW264.7 [5]): Active; IC50 [6]: 4.4 nM; Activity (Mus musculus [21]): Active; Activity (RAW264.7 [8]): Active; Activity (RAW264.7 [9]): Active; inhibition at 0.1 µM (RAW264.7 [12]): 82.1%; CLint scaled at 1 µM [13]: 97.5 mL/min/kg; Activity (Mus musculus [22]): Active; IC50 [23]: 5 µM; half-life at 1 µM [14]: 56.3 min; Activity (Mus musculus [16]): Active; IC50 [19]: 7.9 nM; inhibition at 0.2 µM (RAW264.7 [20]): 105%
99	CS(=O)(=O)Nc1ccc(-c2ccnc(Nc3ccc(N4CCN(CC(=O)NCCCCCC(=O)NO)CC4)cc3)n2)cc1	9.6		

Further lines, the compound ahead of its results:

Compound	inhibition [1] [%]	IC50 (HaCaT) [µM]	inhibition at 0.4 µM (RAW264.7 [2]) [%]	also measured
C[C@@H]1CCN(C(=O)CC#N)C[C@@H]1N(C)c1ncnc2[nH]ccc12 [TOFACITINIB]		> 50		
CS(=O)(=O)Nc1ccc(-c2ccnc(Nc3ccc(-c4cn(CC(=O)NCCCCCC(=O)NO)nn4)cc3)n2)cc1	98	> 50		
CS(=O)(=O)Nc1ccc(-c2ccnc(Nc3ccc(-c4cn(CC(=O)Nc5ccc(C(=O)NO)cc5)nn4)cc3)n2)cc1	98	> 50		IC50 (Histone deacetylase 1): > 2000 nM
CS(=O)(=O)Nc1ccc(-c2ccnc(Nc3ccc(-c4cn(CC(=O)NCCCCCCC(=O)NO)nn4)cc3)n2)cc1	99	> 50		
CS(=O)(=O)Nc1ccc(-c2ccnc(Nc3ccc(-c4cn(CC(=O)NO)nn4)cc3)n2)cc1	99	> 50		IC50 (Histone deacetylase 1): > 2000 nM
CS(=O)(=O)Nc1ccc(-c2ccnc(Nc3ccc(N4CCN(CC(=O)Nc5ccc(C(=O)NO)cc5)CC4)cc3)n2)cc1	99	1.2	105	IC50 [3]: 0.49 nM; inhibition [4]: > 50%; Activity (RAW264.7 [5]): Active; IC50 [6]: 2.6 nM; Activity (Mus musculus [7]): Active; Activity (RAW264.7 [8]): Active; Activity (RAW264.7 [9]): Active; Activity [10]: Non-toxic; Activity (Mus musculus [11]): Active; Compound Showed Better Activity Than 11G And Vorinostat/Momelotinib Control; inhibition at 0.1 µM (RAW264.7 [12]): 105%; CLint scaled at 1 µM [13]: 138 mL/min/kg; half-life at 1 µM [14]: 39.8 min; LD50 [15]: > 7510 mg/kg; Activity (Mus musculus [16]): Active; Activity (Mus musculus [17]): Dose-dependent-effect; IC50 [18]: 10 µM; IC50 [19]: 5.6 nM; inhibition at 0.2 µM (RAW264.7 [20]): 105%
N#CCNC(=O)c1ccc(-c2ccnc(Nc3ccc(N4CCOCC4)cc3)n2)cc1 [MOMELOTINIB]		13	94.8	IC50 (Histone deacetylase 1): 40 nM; IC50 [18]: 7.3 µM
CS(=O)(=O)Nc1ccc(-c2ccnc(Nc3ccc(-c4cn(CC(=O)NCCCCCCCC(=O)NO)nn4)cc3)n2)cc1		> 50		
CS(=O)(=O)Nc1ccc(-c2ccnc(Nc3ccc(-c4cn(CC(=O)NCCCCC(=O)NO)nn4)cc3)n2)cc1	98	> 50		
